Results on eight molecules are retold here after US20250188068A1, “AMIDO CYCLOPROPYL DERIVATIVES AS LPA RECEPTOR INHIBITORS” (CHIESI FARMACEUTICI S.P.A., priority 2022, published 2025).

In the first data set the target is T1, human recombinant LPA1 expressed in CHO cells (Homo sapiens, UniProt Q92633).
T1 construct: expressed in transfected cells; host or cells: CHO cells (CHO-hLPA1 cell line)
T1 sequence (Q92633 whole entry): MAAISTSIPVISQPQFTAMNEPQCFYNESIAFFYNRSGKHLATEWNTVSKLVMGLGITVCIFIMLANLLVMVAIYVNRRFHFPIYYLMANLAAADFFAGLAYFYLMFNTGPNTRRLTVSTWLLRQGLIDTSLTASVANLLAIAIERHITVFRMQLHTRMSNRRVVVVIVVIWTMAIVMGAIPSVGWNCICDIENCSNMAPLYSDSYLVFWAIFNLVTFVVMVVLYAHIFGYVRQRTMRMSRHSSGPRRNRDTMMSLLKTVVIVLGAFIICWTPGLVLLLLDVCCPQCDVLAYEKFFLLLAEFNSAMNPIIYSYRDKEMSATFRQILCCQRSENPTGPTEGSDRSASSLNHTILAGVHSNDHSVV
Put plainly: FLIPR calcium mobilization assay, LPA1 antagonism in CHO-hLPA1 cells. The format is cell-based. To be noted: inhibition of LPA EC80 Ca2+ response, 30 min pre-incubation, range of activity. On the procedure:
The effectiveness of compounds of the present invention as LPA1 antagonist can be determined at the human recombinant LPA1 expressed in CHO cells, using a FLIPR assay in 384 well format.
CHO-hLPA1 cell lines are cultured in a humidified incubator at 5% CO2 in DMEM/F-12 (1:1) MIXTURE with 2 mM Glutamax, supplemented with 10% of Foetal Bovine Serum, 1 mM Sodium Pyruvate, 11 mM Hepes and 1× Penicillin/Streptomycin. CHO hLPA1 cells are seeded into black walled clear-bottom 384-well plates (#781091, Greiner Bio-One GmbH) at a density of 7,500 cells per well in 50 μl culture media and grown overnight in a 37° C. humidified CO2-incubator. Serial dilutions (1:3 or 1:4, 11 points CRC) of compounds are performed in 100% DMSO at 200× the final concentration. The compounds are diluted 1:50 prior to the experiment with Assay Buffer (20 mM HEPES, 145 mM NaCl, 5 mM KCl, 5.5 mM glucose, 1 mM MgCl2 and 2 mM CaCl2), pH 7.4 containing 0.01% Pluronic F-127) to obtain a solution corresponding to […] the final concentration in the assay (4×, 2% DMSO). The final concentration of DMSO in the assay will be 0.5% in each well. Medium is removed by aspiration and cells are then incubated with 30 μl of a loading solution containing 5 μM of the cytoplasmic Ca2+ indicator Cal-520 AM in Assay Buffer containing 2.5 mM probenecid for 30 min at 37° C. incubator (cell loading). The loaded cell plates are transferred into the FLIPR instrument and calcium responses are monitored during the on-line addition protocols. For testing of compounds, after the cell loading, 10 μl/well of 4× antagonists' solution was added onto the cells. After 30 min pre-incubation (at 37° C.), 10 μl/well of 5× concentrated LPA EC80 was added and Ca2+ mobilization responses was followed during the on-line addition protocol. Intracellular peak fluorescence values subtracted by baseline fluorescence are exported and analysed to determine IC50 values, respectively. The calcium response is expressed as percentage of the maximal inhibition of the EC80 agonist response.
The raw data obtained in unstimulated controls (DMSO, no LPA) are set as “100% inhibition”, while the raw data obtained in negative controls, i.e. in the absence of compounds and stimulating with LPA EC80, are set as “0% inhibition”.
The raw data (peak height expressed as relative fluorescence units) are normalized and transformed into “percent of inhibition”. Curve fitting and pIC50 (−Log IC50) estimations are carried out using a four-parameter logistic model using XLfit Software.
For orientation: Calcium flux is commonly read through the fluorescence of an indicator in the cells.
One may read the IC50 as the concentration that gives 50% inhibition. As to `Cc1nc(-c2onc(C)c2CNc2nccc(C3CCCCC3)n2)ccc1NC(=O)C1C(C(=O)O)C1(F)F` (single isomer, unassigned; enantiomer 1) [Compound 19, Single Enantiomer 1 of Trans-3-((6-(4-(((4-cyclohexylpyrimidin-2-yl)amino)methyl)-3-methylisoxazol-5-yl)-2-methylpyridin-3-yl)carbamoyl)-2,2-difluorocyclopropane-1-carboxylic acid], the IC50 is below 50 nM.

Regarding `Cc1noc(-c2ccc(NC(=O)C3C(C(=O)O)C3(F)F)cn2)c1NC(=O)O[C@H](C)c1ccccc1Cl` (single isomer, unassigned) [Compound 5], the IC50 is below 50 nM.

Consider `Cc1nc(-c2onc(C)c2NC(=O)O[C@H](C)c2ccccc2Cl)ccc1NC(=O)C1C(c2noc(=O)[nH]2)C1(F)F` (stereo partly drawn) [Compound 42, (R)-1-(2-chlorophenyl)ethyl (5-(5-(2,2-difluoro-3-(5-oxo-4,5-dihydro-1,2,4-oxadiazol-3-yl)cyclopropane-1-carboxamido)-6-methylpyridin-2-yl)-3-methylisoxazol-4-yl)carbamate], for which the IC50 was below 50 nM.

For `C[C@@H](OC(=O)Nc1c(-c2ccc(NC(=O)[C@@H]3[C@@H](C(=O)O)C3(F)F)cc2)nnn1C)c1ccccc1Cl` [Compound 35, (1S,3S)-3-((4-(5-((((R)-1-(2-chlorophenyl)ethoxy)carbonyl)amino)-1-methyl-1H-1,2,3-triazol-4-yl)phenyl)carbamoyl)-2,2-difluorocyclopropane-1-carboxylic acid], the IC50 was below 50 nM.

Regarding `Cc1nc(-c2onc(C)c2CNc2nccc(-c3ccco3)n2)ccc1NC(=O)[C@@H]1[C@@H](C(=O)O)C1(F)F` [Compound 22, (1S,3S)-2,2-difluoro-3-((6-(4-(((4-(furan-2-yl)pyrimidin-2-yl)amino)methyl)-3-methylisoxazol-5-yl)-2-methylpyridin-3-yl)carbamoyl)cyclopropane-1-carboxylic acid], the IC50 is 100 to 200 nM.

For `Cc1nc(-c2onc(C)c2NC(=O)O[C@H](C)c2ccccc2Cl)ccc1NC(=O)C1C(c2noc(=S)[nH]2)C1(F)F` (stereo partly drawn) [Compound 41, (R)-1-(2-chlorophenyl)ethyl (5-(5-(2,2-difluoro-3-(5-thioxo-4,5-dihydro-1,2,4-oxadiazol-3-yl)cyclopropane-1-carboxamido)-6-methylpyridin-2-yl)-3-methylisoxazol-4-yl)carbamate], the IC50 was below 50 nM.

Take `Cc1nc(-c2onc(C)c2NC(=O)O[C@H](C)c2ccccc2Cl)ccc1NC(=O)[C@H]1[C@H](C(=O)O)C1(F)F` [Compound 2, (1R,3R)-3-((6-(4-((((R)-1-(2-chlorophenyl)ethoxy)carbonyl)amino)-3-methylisoxazol-5-yl)-2-methylpyridin-3-yl)carbamoyl)-2,2-difluorocyclopropane-1-carboxylic acid]: the IC50 is below 50 nM.

For the molecule `Cc1nc(-c2onc(C)c2NC(=O)O[C@H](C)c2ccccc2Cl)ccc1NC(=O)C1C(c2nsc(=O)[nH]2)C1(F)F` (stereo partly drawn) [Compound 43, (R)-1-(2-chlorophenyl)ethyl (5-(5-(2,2-difluoro-3-(5-oxo-4,5-dihydro-1,2,4-thiadiazol-3-yl)cyclopropane-1-carboxamido)-6-methylpyridin-2-yl)-3-methylisoxazol-4-yl)carbamate], the IC50 is below 50 nM.

The next data set concerns Caco-2 cells monolayers (human colon carcinoma cell line).
Assay: not given
The following applies: Caco-2, 60 min, 10 μM, pH 7.4.
On to `Cc1nc(-c2onc(C)c2NC(=O)O[C@H](C)c2ccccc2Cl)ccc1NC(=O)C1C(c2noc(=O)[nH]2)C1(F)F` (stereo partly drawn) [Compound 42, (R)-1-(2-chlorophenyl)ethyl (5-(5-(2,2-difluoro-3-(5-oxo-4,5-dihydro-1,2,4-oxadiazol-3-yl)cyclopropane-1-carboxamido)-6-methylpyridin-2-yl)-3-methylisoxazol-4-yl)carbamate], for which the “Passive Permeability” value was at most 0.5 ×10⁻⁶ cm/s.
